Read-outs that look alike come from different tables or passages of the source.
How the values were obtained:
Format in all cases: cell-based
[1] = tested on: Bacterial Spores; test: Sporicidal test against conventional compositions (Table 22); settings: H2O2 35% pH 3.32, KK 2.0 wt-% (250 ppm POOA) pH 1.85, mixed peracid 1.5 wt-% (750 ppm peracid) pH 3.06, peroxyacetic 4.5 wt-% (2610 ppm POAA) pH 2.61
Experimental: (§1) Antimicrobial activity was determined according to two well established methods. The first method was the procedure set out in Germicidal and Detergent Sanitizing Action of Disinfectants, Official Methods of Analysis of the Association of Official Analytical Chemists, paragraph 960.09 and applicable sections, 15th Edition, 1990 (EPA Guideline 91-2). The second method was the procedure described in A.O.A.C. Use Dilution Methods, Official Methods of Analysis of the Association of Official Analytical Chemists, paragraph 955.14 and applicable sections, 15th Edition, 1990 (EPA Guideline 91-2). Briefly, antimicrobial activity of the present compositions was determined by exposing a one mL aliquot containing the target microorganism to 99 mL of the desired concentration of the test substance at the desired temperature. After the specified contact time, one mL of the test solution containing the microorganism was neutralized and enumerated for survivors.

[2] = tested on: E. coli; test: Germicidal and detergent sanitizing action suspension test (AOAC 960.09); settings: Escherichia coli, 0.5 min; for log reduction at 5 ppm / log reduction at 10 ppm: 30 Second Exposure at Room Temperature; for log reduction at 20 ppm / log reduction at 40 ppm / log reduction at 60 ppm: 30 seconds
Experimental: as §1
(§2) Antimicrobial activity was determined as described above in Example 4.
(§3) Test 1 included 5 min exposure of the microbe to composition AB at room temperature. The microbes in test 1 included E. aerogenes ATCC 13048 and S. aureus ATCC 6538. Test 2 included 30 sec exposure of the microbe to composition AB at room temperature. The microbes in test 2 included S. aureus ATCC 6538, E. coli ATCC 11229, and P. aeruginosa ATCC 13442.

[3] = tested on: S. aureus; test: as above; settings: Staphylococcus aureus, 0.5 min
Experimental: as §1, §2, §3

[4] = Soft water pH 3.91, Post Test pH 4.01

OO [Composition H2O2, hydrogen peroxide]
Log Reduction ([1]; 40 °C, 30 sec): 1.19 log
Log Reduction ([1]; 40 °C, 60 sec): 2.94 log
Log Reduction ([1]; 40 °C, 120 sec): >6.30 log
Log Reduction ([1]; 60 °C, 10 sec): 1.59 log
Log Reduction ([1]; 60 °C, 20 sec): 4.85 log
Log Reduction ([1]; 60 °C, 30 sec): 4.89 log
Log Reduction ([1]; 80 °C, 10 sec): >6.30 log
Log Reduction ([1]; 80 °C, 20 sec): >6.30 log
Log Reduction ([1]; 80 °C, 30 sec): >6.30 log

CCCCCCCC(=O)OO [Pure POOA Crystals, peroxyoctanoic acid]
log reduction at 5 ppm ([2]; Milli-Q water pH 4.04, Post Test pH 4.09): 1.34
log reduction at 5 ppm ([2]; Milli-Q water pH 5.00, Post Test pH 5.03): 0.07
log reduction at 5 ppm ([2]; Milli-Q water pH 5.98, Post Test pH 5.89): 0.11
log reduction at 5 ppm ([2]; Milli-Q water pH 6.60, Post Test pH 6.24): 0.09
log reduction at 5 ppm [2, 4]: 1.26
log reduction at 5 ppm ([2]; Soft water pH 5.08* (pH drift of ~0.7 pH units), Post Test pH 5.79): 0.09
log reduction at 5 ppm ([2]; Soft water pH 5.91* (pH drift of ~0.7 pH units), Post Test pH 6.68): 0.08
log reduction at 5 ppm ([2]; Soft water pH 9.29, Post Test pH 9.12): 0.07
log reduction at 10 ppm ([2]; Milli-Q water pH 4.04, Post Test pH 4.08): 6.04
log reduction at 10 ppm ([2]; Milli-Q water pH 5.00, Post Test pH 4.98): 0.07
log reduction at 10 ppm ([2]; Milli-Q water pH 5.98, Post Test pH 5.90): 0.1
log reduction at 10 ppm ([2]; Milli-Q water pH 6.60, Post Test pH 5.80): 0.06
log reduction at 10 ppm [2, 4]: 6.34
log reduction at 10 ppm ([2]; Soft water pH 5.08, Post Test pH 5.67): 0.55
log reduction at 10 ppm ([2]; Soft water pH 5.91, Post Test pH 6.68): 0.24
log reduction at 10 ppm ([2]; Soft water pH 9.29, Post Test pH 9.09): 0.07
log reduction at 20 ppm ([2]; 20 ppm, 500 ppm Synthetic Hard Water, pH 7.77, pH 7.68): 0.62
log reduction at 40 ppm ([2]; 40 ppm, 500 ppm Synthetic Hard Water, pH 7.77, pH 7.61): 0.93
log reduction at 60 ppm ([2]; 60 ppm, 500 ppm Synthetic Hard Water, pH 7.77, pH 7.54): 1.12
log reduction at 60 ppm ([2]; pH 5.08, 60 ppm, Milli-Q water, pH 5.08): 4.68
log reduction at 40 ppm ([2]; pH 5.28, 40 ppm, Milli-Q water, pH 5.28): 2.61
log reduction at 20 ppm ([2]; pH 5.58, 20 ppm, Milli-Q water, pH 5.58): 0.55
log reduction at 5 ppm ([3]; 5 ppm, Milli-Q water pH 4.04, Post Test pH 4.09, 30 Second Exposure at Room Temperature, read-out: Log Reduction of S. aureus): 6.28
log reduction at 5 ppm ([3]; 5 ppm, Milli-Q water pH 5.00, Post Test pH 5.03, 30 Second Exposure at Room Temperature, read-out: Log Reduction of S. aureus): 5.01
log reduction at 5 ppm ([3]; 5 ppm, Milli-Q water pH 5.98, Post Test pH 5.89, 30 Second Exposure at Room Temperature, read-out: Log Reduction of S. aureus): 4.44
log reduction at 5 ppm ([3]; 5 ppm, Milli-Q water pH 6.60, Post Test pH 6.24, 30 Second Exposure at Room Temperature, read-out: Log Reduction of S. aureus): 6.04
log reduction at 5 ppm ([3]; 5 ppm, Soft water pH 3.91, Post Test pH 4.01, 30 Second Exposure at Room Temperature, read-out: Log Reduction of S. aureus): 5.82
log reduction at 5 ppm ([3]; 5 ppm, Soft water pH 5.08* (pH drift of ~0.7 pH units), Post Test pH 5.79, 30 Second Exposure at Room Temperature, read-out: Log Reduction of S. aureus): 5.16
log reduction at 5 ppm ([3]; 5 ppm, Soft water pH 5.91* (pH drift of ~0.7 pH units), Post Test pH 6.68, 30 Second Exposure at Room Temperature, read-out: Log Reduction of S. aureus): 4.19
log reduction at 5 ppm ([3]; 5 ppm, Soft water pH 9.29, Post Test pH 9.12, 30 Second Exposure at Room Temperature, read-out: Log Reduction of S. aureus): 0.1
log reduction at 10 ppm ([3]; Milli-Q water pH 4.04, Post Test pH 4.08, 30 Second Exposure at Room Temperature): > 6.82
log reduction at 10 ppm ([3]; Milli-Q water pH 5.00, Post Test pH 4.98, 30 Second Exposure at Room Temperature): > 6.82
log reduction at 10 ppm ([3]; Milli-Q water pH 5.98, Post Test pH 5.90, 30 Second Exposure at Room Temperature): 6.52
log reduction at 10 ppm ([3]; Milli-Q water pH 6.60, Post Test pH 5.80, 30 Second Exposure at Room Temperature): > 6.82
log reduction at 10 ppm ([3]; Soft water pH 3.91, Post Test pH 4.01, 30 Second Exposure at Room Temperature): 6.28
log reduction at 10 ppm ([3]; Soft water pH 5.08, Post Test pH 5.67, 30 Second Exposure at Room Temperature): 6.12
log reduction at 10 ppm ([3]; Soft water pH 5.91, Post Test pH 6.68, 30 Second Exposure at Room Temperature): > 6.82
log reduction at 10 ppm ([3]; Soft water pH 9.29, Post Test pH 9.09, 30 Second Exposure at Room Temperature): 0.26
log reduction at 5 ppm ([3]; concentration of 5 ppm, pH of ~5, 30 sec, RT, read-out: log reductions of Staphylococcus aureus): 5
